Like-named read-outs stand apart in the source and are kept apart here.
Columns and labels:
[1] = biological target: SQR of 06STD024 (SDHC / altC) mitochondria (Zymoseptoria tritici, UniProt A0A1X7RQW2+F9X9V6+F9XH52+O42772); assay: Succinate-quinone (SQR) SDHI sensitivity assay on purified mitochondria, 06STD024; type: biochemical
Outline: (§1)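 Succinate:ubiquinone/DCPIP reductase inhibition measured on purified mitochondria from Zymoseptoria tritici strains carrying either a single C-subunit gene (ZtSDHC1, ZtSDHC1_A84I or ZtSDHC3) or both ZtSDHC1 and ZtSDHC3; pTet::SDHC3 transformant tested under repressed and induced conditions.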

[2] = test system: Zymoseptoria tritici isolates; assay: Growth tests on solid agar at discriminatory fungicide concentrations; type: cell-based; conditions: AE agar, pydiflumetofen 0.1 mg.L^-1, 18 DPI (procedure of Fig 6)
Excerpt: Fig 6 Resistance to SHA-SDHIs in Z. tritici EU populations. […] Sensitivity data are sorted by genotype according to the presence of the ZtSDHC3 gene. ** p value of 0.0029 in Welch’s corrected unpaired t-test. (B) Solid agar growth of a collection of 93 Z. tritici isolates sampled in 2009 (same set as above). Individual strains from this collection are boxed and numbered 1 to 93. Boxes A and B correspond to reference resistant strains 06STD024 and 07STGB009 respectively. Box C corresponds to IPO323 reference sensitive isolate. The yellow framed boxes correspond to strains carrying the ZtSDHC3 gene. Yellow arrow designates strain 09STIR20.1 (number 78) carrying a non-functional alt-SDHC (frameshift, S6 Table).
A large scale spotting assay of 96 isolates (Fig 6) was performed using the V&P 96 floating pin tool VP408FP6 (V&P Scientific), equipped with flat tip FP6 pins of 1.58 mm diameter (resulting in approx. 0.4 μl transfer volume). Source cultures for cell spotting were grown in 100 μl YPD liquid medium in a 96 well flat bottom plate (Corning, 3370) at 18°C for 11 days (average cell density of 3.5·10^6/ml), then diluted 1:2x in fresh YPD medium and incubated for another 1.5 h before transfer with the pin tool (approx. 700 cells per spot) onto AE agar with or without fungicide. Plates were incubated at 20°C in the dark for up to 18 days. Smaller scale spotting assays (Figs 4 and 8) were performed using 5 days V8-agar plates inoculums adjusted to 2.10^6 spores.mL^-1 in water and diluted in steps of 3. 2μL of spore suspension was spotted on the plates, and the plates were incubated shielded from light at 21°C for 6 days.

[3] = biological target: WT-SQR (SDHC), IPO323 mitochondria (Zymoseptoria tritici, UniProt F9X9V6+F9XH52+O42772); assay: Succinate-quinone (SQR) SDHI sensitivity assay on purified mitochondria, IPO323; type: biochemical
Outline: (§2)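 Mitochondria purified from each strain were used for succinate:ubiquinone/DCPIP reductase assays, with suspensions adjusted to similar initial velocity (1 OD595nm hour^-1). Inhibitor was tested at 0.047 nM–50 μM in 4x steps (11 concentrations plus DMSO). IC50 came from non-linear fits of absorbance slopes (OD/min) against log concentration.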

[4] = test system: SQR (SDHC / altC) of IPO323 pTet::SDHC3 transformant, induced; assay: Succinate-quinone (SQR) SDHI sensitivity assay on purified mitochondria, IPO323 pTet::SDHC3 induced; type: biochemical, Zymoseptoria tritici; conditions: IPO323 pTet::SDHC3 transformant grown in the absence of doxycycline; mean of three ± SD
Outline: as §1

[5] = biological target: altC-SQR (altC) of D024 SDHC1 KO mitochondria (Zymoseptoria tritici, UniProt A0A1X7RQW2+F9X9V6+O42772); assay: Succinate-quinone (SQR) SDHI sensitivity assay on purified mitochondria, 06STD024 SDHC1 KO; type: biochemical; conditions: for RF (resistance factor), D024 SDHC1 KO (altC): IC50 ratio compared to IPO323 values
Sequence of altC-SQR (altC) of D024 SDHC1 KO mitochondria (A0A1X7RQW2 36-181): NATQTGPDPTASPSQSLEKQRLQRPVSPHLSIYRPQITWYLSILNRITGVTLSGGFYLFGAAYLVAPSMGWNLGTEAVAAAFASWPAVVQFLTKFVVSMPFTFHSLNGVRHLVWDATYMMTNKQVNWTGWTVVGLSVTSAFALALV
Sequence of altC-SQR (altC) of D024 SDHC1 KO mitochondria (O42772 20-297): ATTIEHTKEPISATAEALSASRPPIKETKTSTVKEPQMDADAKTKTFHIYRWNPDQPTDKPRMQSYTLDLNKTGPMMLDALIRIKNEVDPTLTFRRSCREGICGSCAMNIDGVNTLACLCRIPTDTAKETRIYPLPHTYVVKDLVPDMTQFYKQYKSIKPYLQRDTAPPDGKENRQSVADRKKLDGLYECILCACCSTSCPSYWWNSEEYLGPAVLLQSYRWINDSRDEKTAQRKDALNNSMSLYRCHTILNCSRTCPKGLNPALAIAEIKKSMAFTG
Sequence of altC-SQR (altC) of D024 SDHC1 KO mitochondria (F9X9V6 1-193): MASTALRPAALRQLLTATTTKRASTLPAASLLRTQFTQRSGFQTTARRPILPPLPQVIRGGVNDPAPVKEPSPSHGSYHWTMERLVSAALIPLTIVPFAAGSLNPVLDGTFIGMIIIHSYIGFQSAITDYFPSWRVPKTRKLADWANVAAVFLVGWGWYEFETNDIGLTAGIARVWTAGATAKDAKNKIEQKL
Sequence of altC-SQR (altC) of D024 SDHC1 KO mitochondria (F9WWR1 41-643 partner): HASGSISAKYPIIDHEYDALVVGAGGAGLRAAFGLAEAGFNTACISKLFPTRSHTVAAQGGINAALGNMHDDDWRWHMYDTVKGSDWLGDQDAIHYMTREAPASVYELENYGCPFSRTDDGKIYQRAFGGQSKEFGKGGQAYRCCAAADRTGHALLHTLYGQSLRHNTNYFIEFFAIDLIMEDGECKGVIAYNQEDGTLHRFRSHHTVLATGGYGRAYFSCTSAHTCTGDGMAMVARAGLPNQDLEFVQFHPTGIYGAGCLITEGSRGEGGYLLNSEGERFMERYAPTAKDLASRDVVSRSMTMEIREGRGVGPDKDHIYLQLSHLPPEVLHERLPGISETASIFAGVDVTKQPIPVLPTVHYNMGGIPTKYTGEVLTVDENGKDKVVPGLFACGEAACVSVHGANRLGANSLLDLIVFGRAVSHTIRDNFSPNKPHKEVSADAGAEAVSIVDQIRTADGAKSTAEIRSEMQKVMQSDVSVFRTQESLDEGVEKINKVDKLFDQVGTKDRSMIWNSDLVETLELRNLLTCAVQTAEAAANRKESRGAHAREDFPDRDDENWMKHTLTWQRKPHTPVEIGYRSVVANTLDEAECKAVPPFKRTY
Outline: as §1

[6] = biological target: SQR (SDHC) of D024 SDHC3 KO mitochondria (Zymoseptoria tritici, UniProt F9X9V6+F9XH52+O42772); assay: Succinate-quinone (SQR) SDHI sensitivity assay on purified mitochondria, 06STD024 SDHC3 KO; type: biochemical
Sequence of SQR (SDHC) of D024 SDHC3 KO mitochondria (F9XH52 44-187): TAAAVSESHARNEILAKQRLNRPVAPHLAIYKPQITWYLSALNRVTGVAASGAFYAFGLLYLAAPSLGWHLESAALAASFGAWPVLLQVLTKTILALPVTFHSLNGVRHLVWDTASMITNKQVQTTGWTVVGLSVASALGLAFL
Sequence of SQR (SDHC) of D024 SDHC3 KO mitochondria (O42772 19-297): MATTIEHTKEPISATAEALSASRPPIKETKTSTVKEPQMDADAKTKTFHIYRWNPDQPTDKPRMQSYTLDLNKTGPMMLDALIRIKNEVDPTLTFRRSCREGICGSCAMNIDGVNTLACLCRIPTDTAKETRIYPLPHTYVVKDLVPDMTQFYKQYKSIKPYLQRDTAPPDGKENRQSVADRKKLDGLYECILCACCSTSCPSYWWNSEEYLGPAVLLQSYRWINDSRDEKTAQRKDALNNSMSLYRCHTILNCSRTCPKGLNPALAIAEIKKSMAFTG
Sequence of SQR (SDHC) of D024 SDHC3 KO mitochondria (F9X9V6 1-193): as the sequence (F9X9V6 1-193) above
Sequence of SQR (SDHC) of D024 SDHC3 KO mitochondria (F9WWR1 29-643 partner): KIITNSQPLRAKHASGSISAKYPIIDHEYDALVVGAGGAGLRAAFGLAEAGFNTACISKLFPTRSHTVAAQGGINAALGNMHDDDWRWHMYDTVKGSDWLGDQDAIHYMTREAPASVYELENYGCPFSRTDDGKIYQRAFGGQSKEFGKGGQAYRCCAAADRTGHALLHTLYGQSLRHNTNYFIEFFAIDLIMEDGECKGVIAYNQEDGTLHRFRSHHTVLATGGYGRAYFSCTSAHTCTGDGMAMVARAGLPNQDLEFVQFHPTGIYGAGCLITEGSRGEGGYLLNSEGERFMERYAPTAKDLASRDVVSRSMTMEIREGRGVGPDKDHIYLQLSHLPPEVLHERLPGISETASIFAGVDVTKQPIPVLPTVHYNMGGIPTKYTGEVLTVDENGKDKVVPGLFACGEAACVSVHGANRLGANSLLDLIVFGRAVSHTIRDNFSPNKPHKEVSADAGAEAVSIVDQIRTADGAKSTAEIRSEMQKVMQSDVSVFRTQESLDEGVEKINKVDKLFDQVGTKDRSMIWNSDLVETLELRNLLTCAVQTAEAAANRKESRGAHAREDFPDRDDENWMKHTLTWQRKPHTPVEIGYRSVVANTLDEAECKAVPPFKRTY
Outline: as §2

[7] = test system: Zymoseptoria tritici field and genetically modified strains; assay: Liquid culture assay for fungicide sensitivity determination; type: cell-based; conditions: Zymoseptoria tritici, liquid culture sensitivity
Outline: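 EC50s from liquid culture growth tests with field isolates and modified strains. Population monitoring used final concentrations 100 to 0.0001 mg.L^-1 in 10x steps (7 levels plus DMSO control); refined panel profiling used 0.5 mM to 0.47 nM in 4x steps (11 levels plus DMSO).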

[8] = IC50 ratio compared to IPO323 values

Sequence of SQR of 06STD024 (SDHC / altC) mitochondria (A0A1X7RQW2 36-181): as the sequence (A0A1X7RQW2 36-181) above
Sequence of SQR of 06STD024 (SDHC / altC) mitochondria (O42772 19-297): as the sequence (O42772 19-297) above
Sequence of SQR of 06STD024 (SDHC / altC) mitochondria (F9X9V6 1-193): as the sequence (F9X9V6 1-193) above
Sequence of SQR of 06STD024 (SDHC / altC) mitochondria (F9XH52 44-187): as the sequence (F9XH52 44-187) above
Sequence of SQR of 06STD024 (SDHC / altC) mitochondria (F9WWR1 29-643 partner): as the sequence (F9WWR1 29-643 partner) above

`CON(C(=O)c1cn(C)nc1C(F)F)[C@@H](C)Cc1c(Cl)cc(Cl)cc1Cl` [Pydiflumetofen] was tested, and the “RF (resistance factor), 06STD024 (SDHC / altC)” value [1, 8] was 4.6, the IC50 ([1]; mitochondria of field isolate 06STD024, mean of three ± SD) was 1.4 ± 0.05 nM and the “Growth phenotype on SDHI-amended plate” value ([2]; strain 06STD024) was “Weak”. The “Growth phenotype on SDHI-amended plate” value ([2]; strain 06STD024, listed as pydiflumetofen) was “weak growth”, the “Growth phenotype on SDHI-amended plate” value ([2]; strain 07STGB009) was “Weak” and the “Growth phenotype on SDHI-amended plate” value ([2]; strain 07STGB009, listed as pydiflumetofen) was “weak growth”. The “Growth phenotype on SDHI-amended plate” value ([2]; strain 09STD041) was “Very weak”, the “Growth phenotype on SDHI-amended plate” value ([2]; strain 09STD053) was “No” and the “Growth phenotype on SDHI-amended plate” value ([2]; strain 09STF011) was “Weak”. For the same molecule, the “Growth phenotype on SDHI-amended plate” value ([2]; strain 09STF037) was “Very weak”, the “Growth phenotype on SDHI-amended plate” value ([2]; strain 09STF112) was “Very weak” and the “Growth phenotype on SDHI-amended plate” value ([2]; strain 09STIR20.3) was “Very weak”. For the same molecule, the “Growth phenotype on SDHI-amended plate” value ([2]; strain IPO323) was “No”, the “Growth phenotype on SDHI-amended plate” value ([2]; strain IPO94269) was “No” and the IC50 [3] was 0.3 ± 0.04 nM. The IC50 [4] was 0.9 ± 0.3 nM, the “RF (resistance factor), D024 SDHC1 KO (altC)” value [5] was 4.9 and the “RF (resistance factor), D024 SDHC1 KO (altC)” value ([5]; listed as pydiflumetofen) was 6. The IC50 ([5]; mitochondria of 06STD024 ZtSDHC1 deletion mutant (pure altC-SQR), mean of three ± SD) was 1.5 ± 0.4 nM, the “RF (resistance factor), D024 SDHC3 KO (SDHC)” value [6, 8] was 1.1 and the IC50 ([6]; mitochondria of 06STD024 ZtSDHC3 deletion mutant, mean of three ± SD) was 0.3 ± 0.07 nM. For the same molecule, the EC50 ([7]; read-out: EC50 (nM) Mean, strain 06STD024) was 28.2 nM, the EC50 ([7]; read-out: EC50 (nM) Mean, strain 07STGB009) was 24.5 nM and the EC50 ([7]; read-out: EC50 (nM) Mean, strain 09STD041) was 19.8 nM. The EC50 ([7]; read-out: EC50 (nM) Mean, strain 09STD053) was 6.4 nM, the EC50 ([7]; read-out: EC50 (nM) Mean, strain 09STF011) was 17.8 nM and the EC50 ([7]; read-out: EC50 (nM) Mean, strain 09STF037) was 8.1 nM. The EC50 ([7]; read-out: EC50 (nM) Mean, strain 09STF112) was 18.7 nM, the EC50 ([7]; read-out: EC50 (nM) Mean, strain 09STIR20.3) was 8.1 nM and the EC50 ([7]; read-out: EC50 (nM) Mean, strain Flu21 (SDHC1_A84I)) was 163 nM. It also gave an EC50 ([7]; read-out: EC50 (nM) Mean, strain IPO323) of 4.5 nM, an EC50 ([7]; read-out: EC50 (nM) Mean, strain IPO94269) of 4.7 nM and an EC50 ([7]; read-out: EC50 (nM) Mean, strain KO_SDHC1_T1) of 377 nM. For the same molecule, the EC50 ([7]; read-out: EC50 (nM) Mean, strain KO_SDHC1_T3) was 230 nM, the EC50 ([7]; read-out: EC50 (nM) Mean, strain KO_SDHC3_T4) was 5.1 nM and the EC50 ([7]; read-out: EC50 (nM) Mean, strain KO_SDHC3_T13) was 5.6 nM. It also gave an EC50 ([7]; read-out: EC50 (nM) Mean, strain pTet::SDHC3_I78A_T1) of 4.8 nM, an EC50 ([7]; read-out: EC50 (nM) Mean, strain pTet::SDHC3_I78A_T5) of 6 nM and an EC50 ([7]; read-out: EC50 (nM) Mean, strain pTet::SDHC3_I78A_T15) of 4.9 nM. It also gave an EC50 ([7]; read-out: EC50 (nM) Mean, strain pTet::SDHC3_I78A_T35) of 2.9 nM, an EC50 ([7]; read-out: EC50 (nM) Mean, strain pTet::SDHC3_T1) of 164 nM and an EC50 ([7]; read-out: EC50 (nM) Mean, strain pTet::SDHC3_T2) of 160 nM. It also gave an EC50 ([7]; read-out: EC50 (nM) Mean, strain pTet::SDHC3_T3) of 108 nM and an EC50 ([7]; read-out: EC50 (nM) Mean, strain pTet::SDHC3_T7) of 183 nM.

From paper PMC6941823, “A dispensable paralog of succinate dehydrogenase subunit C mediates standing resistance towards a subclass of SDHI fungicides in Zymoseptoria tritici” (PLoS Pathogens, 2019)
